Read-outs that look alike come from different tables or passages of the source. Square brackets hold non-standard residues; d marks the D form. Peptide text beside a SMILES is read from it. * marks the point of attachment. Sta = CC(C)C[C@H](N)[C@@H](O)CC(=O)O; Isovaleryl = CC(C)CC(=O)*
What was measured:
[1] = test system: adult fleas; assay: Flea feeding system: viability and fecundity of fleas fed blood containing protease inhibitors; type: in vivo; conditions: for Fecundity Days 1-7 / Adult Survival Female / Adult Survival Male / Adult Survival Total: percent of corresponding control group; for reduction in adult viability: not statistically significant
Protocol: This Example evaluates the effect of a number of protease inhibitors on flea viability and fecundity in a flea feeding system as described by Wade et al. ibid.
Protease inhibitor compounds were tested in groups of 3 to 6 including appropriate control groups. Inhibitors were not tested in groups of common inhibition types. Rather, they were tested in groups based on the diluent needed to dissolve them. (AEBSF, aprotinin, bestatin, leupeptin, phosphoramidon, soybean trypsin inhibitor and soybean trypsin/chymotrypsin inhibitor were dissolved in water; E-64 and pepstatin were dissolved in ethanol). This reduced the number of control (diluent only) groups needed within a particular assay. Inhibitor concentrations were chosen such that the lower concentration used was within the range recommended by the supplier for that inhibitor. The higher concentration was typically 10 times above the lower concentration and was used to look for dose response.
The general protocol for all of the assays was as follows: Approximately 2000 newly emerged adult fleas were placed in feeding chambers to feed on normal blood for about 24 to 48 hr. The fleas were prefed for two reasons: The first was to be certain that only fleas that would feed in the feeding system were used in the comparative study.
The prefed fleas were placed in "minifeeder" feeding chambers at a ratio of about 80 female fleas to about 20 male fleas for a total of about 100 fleas per chamber. Actual total number of fleas per chamber varied from about 90 to 125 fleas. […] Three chambers were prepared for each experimental and control group. A fresh blood meal containing the appropriate inhibitor in 3 ml total volume was placed on each chamber daily through the 7 day extent of an assay.
On days 3, 5, and 7 of the assay, surviving adult fleas were transferred to clean chambers. The contents of the original chambers were dissolved in about 40 ml of PBS (phosphate-buffered saline) in a 50 ml Falcon tube. The contents of a given tube were then filtered through a preweighed #1 Whatman filter disk inserted into a vacuum filter. The 50 ml tube and the filter funnel were rinsed with distilled water which was then passed through the filter. Once the chamber contents had been filtered, dead adult fleas were removed from the filter paper and placed in a labelled tube so that they could be counted and sexed. The filter paper was then placed into a preweighed 12×75 polypropylene tube and dried in the SpeedVac for 2.5 hr with the heater on. After drying the filter paper was weighed. The weight of the filter paper and tube was subtracted to obtain the dry weight of the eggs and this value was converted to an estimated number of eggs using the formula y=41384.361x+162.37, where x=dry weight of eggs.
On day 7, adult fleas that had survived the study were frozen, counted and sexed. The numbers were added to the number of male and female fleas that had died during the assay to verify the number of male and female fleas in each chamber at the start of the study.
Female, male and total adult flea survival were calculated for all experimental and control groups on days 3, 5, and 7 of each assay. Additionally, the number of eggs per surviving female was calculated on days 3, 5 and 7. Female fleas found dead on a given collection date were included in the total number of egg-laying females for the days between that date and the previous collection date, providing a conservative estimate of fecundity. Fecundity values were averaged for the three collection dates to obtain an average for each group over 7 days.
Results of these studies are presented below in Table 1 and FIG. 6 through FIG. 9. All survival and fecundity values are presented below as a percent of control value.

[2] = test system: flea midgut proteases; assay: Protease substrate gel analysis of flea midguts with protease inhibitors in the incubation buffers; type: biochemical; conditions: for effect on protease activity in protease substrate gel: unfed and fed female midguts, AEBSF 1 mM, soybean trypsin inhibitor 100 μg/ml, leupeptin 10 μg/ml in all incubation buffers
Protocol: Protease substrate gels (available from Novex, San Diego, Calif., as Novex Zymogels) were 10% polyacrylamide-SDS gels with 0.1% gelatin. Samples and gels were processed according to Novex instructions. Briefly, samples were diluted in SDS-PAGE sample buffer without reducing agents. Tris-glycine SDS-PAGE was carried out by standard procedures. After electrophoresis, gels were incubated in 0.25% Triton X-100 at room temperature for 30 minutes (min), then in developing buffer (50 mM (millimolar) Tris-HCl pH 7.0, 5 mM CaCl2, 0.02% Brij 35, 0.2 M (molar) NaCl) at room temperature for 30 min, and then incubated with fresh developing buffer at 37° C., usually overnight. Gels were then stained 30 min in 0.5% coomassie R-250, 40% methanol, 10% acetic acid and destained in 40% methanol, 10% acetic acid.
Three unfed female midguts and 0.75 fed female midguts were evaluated in duplicate in several protease substrate gels. Each gel was cut in half. Half was processed as described in Example 2, while the other half contained protease inhibitors in all incubation buffers. The following inhibitors were evaluated:
Mixed-sex fed flea midguts were processed as described in U.S. Pat. No. 5,356,622, ibid. Aliquots of several steps of the procedure were evaluated by loading an equivalent of 0.4 midguts per lane of a protease substrate gel as described in Example 2. Samples were from the low speed supernatant (lanes 2 and 9), sonicated midguts (lanes 3 and 10), high speed supernatant (lanes 4 and 11), combined low and high speed supernatants (FGS) (lanes 5 and 12) and the high speed pellet (lanes 6 and 13). Lanes 7 and 8 contained 50 nanograms (ng) of trypsin as a control. Duplicate lanes were evaluated. The gel was cut in half, and lanes 1-7 were processed as described in Example 2, and lanes 8-14 were processed with 100 μg/ml soybean trypsin inhibitor in all the incubation buffers.

[3] = test system: leucine aminopeptidase; assay: Leu-AMC cleavage by control protease; type: biochemical; conditions: 10 mM EDTA, 86 μg/ml bestatin; substrate Leu-AMC
[4] = test system: flea aminopeptidase; assay: Leu-AMC cleavage by serine protease-depleted flea midgut lysate; type: biochemical
Protocol: The starting material for the isolation of a flea aminopeptidase was a flea midgut lysate preparation that had been depleted of serine proteases by passage over a benzamidine-Sepharose affinity column. To assay for aminopeptidase activity, the synthetic substrate L-Leucine-AMC (Leu-AMC), which releases a fluorescent AMC leaving group upon proteolytic cleavage, was incubated with the serine protease-depleted flea midgut preparation. Aminopeptidase activity was easily detectable with as little as 1.2 μg of lysate, both confirming the presence of an aminopeptidase (as indicated in other Examples herein) and allowing for the detection of aminopeptidase activity in fractions collected throughout subsequent fractionation and purification procedures.

[5] = at the concentrations tested in blood meal
[6] = 1 mM pefabloc, 1 mg/ml trypsin/chymotrypsin inhibitor, 1 mg/ml trypsin inhibitor, 1 mM TPCK, 1 μg/ml pepstatin, 10 μg/ml E-64, 10 μg/ml leupeptin, 10 mM EDTA, 86 μg/ml bestatin, lysate about 1.2 μg and about 12 μg
[7] = 1 μg/ml in blood meal, second 1 μg/ml line under E-64
[8] = 10 μg/ml in blood meal, second 10 μg/ml line under E-64

## Cl.NCCc1ccc(S(=O)(=O)F)cc1 [AEBSF, 4-2-aminoethyl-benzenesulfonylfluoride-hydrochloride]
[1]; 0.3 mM in blood meal
  Fecundity Days 1-7: 82.4%
[1]; 0.5 mM in blood meal
  Fecundity Days 1-7: 95.0%
[1]; 5.0 mM in blood meal
  Adult Survival Female: 6.8%
  Adult Survival Male: 0.0%
  Adult Survival Total: 5.6%
  Fecundity Days 1-7: 1.4%
[1]; 6.0 mM in blood meal
  Adult Survival Female: 4.1%
  Adult Survival Male: 0.0%
  Adult Survival Total: 3.4%
  Fecundity Days 1-7: 17.2%
[1]; about 5 mM to about 6 mM in blood meal
  reduction in flea fecundity: more than 80%
[1]; about 5 mM to about 6 mM in blood meal, p<0.05
  adult survival: reduced to near zero
[2]
  effect on protease activity in protease substrate gel: only inhibitors to have any effect

## CC(C)C[C@H](NC(=O)[C@@H](O)[C@H](N)Cc1ccccc1)C(=O)O [Bestatin]
[3]
  inhibition of the control protease: inhibited
[1]; 1.3 mM in blood meal
  Fecundity Days 1-7: 60.4%
[1]; 1.3 mM in blood meal, significant (p<0.05)
  reduction in fecundity: 40%
[1]; 13.0 mM in blood meal
  Fecundity Days 1-7: 23.3%
[1]; 13 mM in blood meal, significant (p<0.05)
  reduction in fecundity: 77%
[1]; [5]
  effect on adult viability: no significant effect on adult viability
[4]; [6]
  inhibition of the flea protease that cleaved Leu-AMC: inhibited

## CC(C)CC(NC(=O)C1OC1C(=O)O)C(=O)NCCCCNC(=N)N [E-64, trans-epoxysuccinyl-L-leucylamido-(4-guanidino)butane]
[1]; [7]
  Adult Survival Female: 77.3%
  Adult Survival Male: 80.0%
  Adult Survival Total: 77.5%
  Fecundity Days 1-7: 95.2%
[1]; 1 μg/ml in blood meal
  Adult Survival Female: 99.9%
  Fecundity Days 1-7: 109.4%
[1]; [8]
  Adult Survival Female: 90.2%
  Adult Survival Male: 91.1%
  Adult Survival Total: 90.6%
  Fecundity Days 1-7: 84.1%
[1]; 10 μg/ml in blood meal
  Fecundity Days 1-7: 177.4%
[1]; [5]
  effect on fecundity: no statistically significant reduction in fecundity
[1]; dissolved in grain alcohol, 1 μg/ml in blood
  total adult flea survival: small, but significant (p<0.05), reduction
[1]; in grain alcohol, 10 μg/ml in blood
  total adult flea survival: not evident
[4]; [6]
  inhibition of the flea protease that cleaved Leu-AMC: Only bestatin inhibited

## O=C(O)CN(CCN(CC(=O)O)CC(=O)O)CC(=O)O [EDTA, ethylenediaminetetraacetic acid]
[3]
  inhibition of the control protease: inhibited
[4]
  inhibition of the flea protease that cleaved Leu-AMC: Only bestatin inhibited

## CC(=O)N[C@@H](CC(C)C)C(=O)N[C@@H](CC(C)C)C(=O)N[C@H](C=O)CCCNC(=N)N [Leupeptin]
[1]; 5 μg/ml in blood meal
  reduction in adult viability: 30%
  Adult Survival Female: 71.0%
  Adult Survival Male: 61.4%
  Adult Survival Total: 68.4%
  Fecundity Days 1-7: 85.0%
[1]; 50 μg/ml in blood meal
  effect on adult viability: not affected
  Fecundity Days 1-7: 77.6%
[1]; [5]
  effect on fecundity: no effect on fecundity
[4]
  inhibition of the flea protease that cleaved Leu-AMC: Only bestatin inhibited
[2]
  effect on protease activity in protease substrate gel: only inhibitors to have any effect

## CC(C)CC(=O)N[C@H](C(=O)N[C@H](C(=O)N[C@@H](CC(C)C)[C@@H](O)CC(=O)N[C@@H](C)C(=O)N[C@@H](CC(C)C)[C@@H](O)CC(=O)O)C(C)C)C(C)C [Pepstatin A] (Isovaleryl-VV[Sta]A[Sta]-OH)
[1]; 1 μg/ml in blood meal
  Adult Survival Female: 77.6%
  Adult Survival Male: 96.6%
  Adult Survival Total: 80.5%
  Fecundity Days 1-7: 67.7%
[1]; 1 μg/ml in blood meal, significant (p<0.05)
  reduction in fecundity: 32%
[1]; 10 μg/ml in blood meal
  Fecundity Days 1-7: 83.9%
[1]; [5]
  effect on adult viability: no significant effect on adult viability
[4]
  inhibition of the flea protease that cleaved Leu-AMC: Only bestatin inhibited

## CC(C)C[C@H](NP(=O)(O)O[C@@H]1O[C@@H](C)[C@H](O)[C@@H](O)[C@H]1O)C(=O)N[C@@H](Cc1c[nH]c2ccccc12)C(=O)O [Phosphoramidon]
[1]; 10 μg/ml in blood meal
  Adult Survival Female: 98.8%
  Adult Survival Male: 95.2%
  Adult Survival Total: 97.8%
  Fecundity Days 1-7: 89.0%
[1]; 100 μg/ml in blood meal
  Adult Survival Female: 70.2%
  Adult Survival Male: 64.6%
  Adult Survival Total: 69.7%
  Fecundity Days 1-7: 84.9%
[1]; [5]
  effect on fecundity: no significant reduction in fecundity
[1]; concentration not given
  reduction in adult viability: about 30%

## Cc1ccc(S(=O)(=O)N[C@@H](Cc2ccccc2)C(=O)CCl)cc1 [TPCK, N-tosyl-L-phenylalanine chloromethyl ketone]
[4]; [6]
  inhibition of the flea protease that cleaved Leu-AMC: Only bestatin inhibited

## Cl.NCCc1ccc(S(=O)(=O)F)cc1 [pefabloc]
[4]; [6]
  inhibition of the flea protease that cleaved Leu-AMC: Only bestatin inhibited

B1: Soybean Trypsin Inhibitor: serine protease inhibitor, available from Sigma (protein, UniProt P01070 25-205, looked up)
Trypsin inhibitor A: DFVLDNEGNPLENGGTYYILSDITAFGGIRAAPTGNERCPLTVVQSRNELDKGIGTIISSPYRIRFIAEGHPLSLKFDSFAVIMLCVGIPTEWSVVEDLPEGPAVKIGENKDAMDGWFRLERVSDDEFNNYKLVFCPQQAEDDKCGDIGISIDHDDGTRRLVVSKNKPLVVQFQKLDKESL
[1]; 10 μg/ml in blood meal
  effect on fecundity: no effect
  Adult Survival Female: 80.1%
  Adult Survival Male: 101.7%
  Adult Survival Total: 83.9%
  Fecundity Days 1-7: 96.1%
[1]; 100 μg/ml in blood meal
  Adult Survival Female: 76.5%
  Adult Survival Male: 76.0%
  Adult Survival Total: 76.3%
  Fecundity Days 1-7: 79.1%
[1]; 100 μg/ml in blood meal, statistically insignificant
  reduction in fecundity: 20%
[4]
  inhibition of the flea protease that cleaved Leu-AMC: Only bestatin inhibited
[2]; mixed-sex fed flea midgut fractions, 100 μg/ml in all incubation buffers
  inhibition of protease activity in protease substrate gel: majority of the activity was inhibited
[2]
  effect on protease activity in protease substrate gel: only inhibitors to have any effect

Source: patent US6139840A, “Methods of eliciting an antibody response using flea protease proteins and homologs thereof” (priority 1997, dated 2000)
